Among the data in patent US20240366612A1, “COMPOUNDS AND METHODS FOR MODULATING NUCLEIC ACID SPLICING” (REMIX THERAPEUTICS INC., priority 2021, published 2024) are IC50 and GI50 values, retold here.

Bounds are passed on as bounds.

As usually defined, the IC50 is the concentration needed to halve the response being measured. In general, GI50 refers to the concentration at which growth is held to half of that of the control. Lower therefore signals more potent growth inhibition.

For one series, the system named is MYB CJ mRNA. Put plainly: Gene panel canonical junction qPCR assay, MYB. It counts as cell-based. The note with it: Homo sapiens, larger gene panel, read-out: MYB IC50 (decrease in CJ mRNA levels). Here is the method:
Compounds described herein were used to modulate RNA transcript abundance in cells. The expression of a target mRNA was measured by detecting the formation of an exon-exon junction in the canonical transcript (CJ). A compound mediated exon-inclusion event was detected by observing an increase in formation of a new junction with an alternative exon (AJ). Real-time qPCR assays were used to detect these splicing switches and interrogate the potency of various compounds towards different target genes. A high-throughput real time quantitative PCR (RT-qPCR) assay was developed to measure these two isoforms of the mRNA (CJ and AJ) for exemplary genes, such as HTT, SMN2, and MYB, together with a control housekeeping gene, GAPDH or GUSB or PPIA, used for normalization. Briefly, the A673 or K562 cell line was treated with various compounds described herein (e.g., compounds of Formula (I)). After treatment, the levels of the HTT, MYB, or SMN2 mRNA targets were determined from each sample of cell lysate by cDNA synthesis followed by qPCR.
The A673 cell line was cultured in DMEM with 10% FBS. Cells were diluted with full growth media and plated in a 96-well plate (15,000 cells in 100 ul media per well). The plate was incubated at 37° C. with 5% CO2 for 24 hours to allow cells to adhere. An 11-point 3-fold serial dilution of the compounds was made in DMSO then diluted in media in an intermediate plate. Compounds were transferred from the intermediate plate to the cell plate with the top dose at a final concentration of 10 uM in the well. Final DMSO concentration was kept at or below 0.25%. The cell plate was returned to the incubator at 37° C. with 5% CO2 for an additional 24 hours.
The K562 cell line was cultured in IMDM with 10% FBS. For K562, cells were diluted with full growth media and plated in either a 96-well plate (50,000 cells in 50 uL media per well) or a 384-well plate (8,000-40,000 cells in 45 uL media per well). An 11-point 3-fold serial dilution of the compounds were made in DMSO then diluted in media in an intermediate plate. Compound was transferred from the intermediate plate to the cell plate with the top dose at a final concentration of 10 uM in the well. Final DMSO concentration was kept at or below 0.25%. Final volume was 100 uL for 96-well plate and 50 uL for 384-well plate. The cell plate was then placed in an incubator at 37° C. with 5% CO2 for 24 hours.
The data analysis was performed by first determining the ΔCt vs the housekeeper gene. This ΔCt was then normalized against the DMSO control (ΔΔCt) and converted to RQ (relative quantification) using the 2^(−ΔΔCt) equation. The RQ were then converted to a percentage response by arbitrarily setting an assay window of 3.5 and 4.0 ΔCt for HTT-CJ and MYB-CJ respectively and an assay window of 9 and 3 ΔCt for HTT-AJ and MYB-AJ in 96 well format (50,000 K562 cells/well and 15,000 A673 cells per well) and an assay window of 3 and 4 ΔCt for HTT-CJ and MYB-CJ respectively and an assay window of 5 and 3 ΔCt for HTT-AJ and MYB-AJ respectively in 384 well format (8,000 K562 cells/well example). […] The percentage response was then fitted to the 4 parametric logistic equation to evaluate the concentration dependence of compound treatment. The increase in AJ mRNA is reported as AC50 (compound concentration having […] in AJ increase) while the decrease in CJ mRNA levels is reported as IC50 (compound concentration having 50% response in CJ decrease).
Additional studies were carried out for a larger panel of genes using the protocol provided above. The junction between flanking upstream and downstream exons was used to design canonical junction qPCR assays. At least one of the forward primer, reverse primer or the CY5-labeled 5′ nuclease probe (with 3′ quencher such as ZEN/Iowa Black FQ) was designed to overlap with the exon junction to capture the CJ mRNA transcript. […]

Series [1] relates to HiBiT-tagged Target C protein in K562 cells. Nature of the series: HiBiT protein abundance assay, Target C. It counts as cell-based, human. The note with it: HiBiT-modified K562 cells, 24 hours, luminescence. The method in brief:
(§1)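 K562 lines with the endogenous target HiBiT-tagged, seeded in IMDM+1% FBS, got a 10-point 3-fold dilution series (top final 10 μM, DMSO ≤0.25%) for 24 hours at 37° C. Lytic LgBiT luminescence was normalized against unmodified-K562 and DMSO-only controls, and IC50 was interpolated at 50% from a four-parameter logistic fit.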
On the technique in general: The HiBiT peptide binds its large partner to form an active luciferase.

The test system of series [2] is HiBiT-tagged HTT protein in K562 cells. Nature of the series: HiBiT protein abundance assay, HTT. The series is classed as cell-based, human. As to conditions: HiBiT-modified K562 cells, 24 hours, luminescence. An outline of the steps: as §1
Series [3] can be described thus: Cell Titer Glo 2.0 cell viability assay. The note with it: human, K562 cells. A general note: ATP-based viability assays read luminescence as a measure of living cells.
Experimental: Compounds described herein were screened for toxicity in K562 (human chronic myelogenous leukemia) cells using a Cell Titer Glo 2.0 assay.
• Promega CellTiter-Gbo® 2.0 Cell Viability Assay (cat #G9241) • Corning 384-well TC-treated microplates (cat #3570)
Cells were plated at 500 cells/well (K562 cells) in 45 μL of IMDM supplemented with 10% FBS in a 384-well opaque plate. Wells containing only medium were used as a blank control. Test compounds (e.g., compounds of Formula (I), (II), and (III)) were first serially diluted in DMSO then diluted 1:100 with IMDM+10% FBS. The final concentration of DMSO was 0.1% in each well. The cells were incubated for 72 hours at 37° C. and 5% CO2 before assaying with Cell Titer Glo 2.0 reagent.

`Cc1cn2cc(-c3cc(=O)n4nc(N5CCNC6(CC6)C5)sc4n3)cc(F)c2n1` [Compound 209, 7-(8-fluoro-2-methylimidazo[1,2-a]pyridin-6-yl)-2-(4,7-diazaspiro[2.5]octan-7-yl)-5H-[1,3,4]thiadiazolo[3,2-a]pyrimidin-5-one]: the IC50 (in the series with MYB CJ mRNA; in series [1]; in series [2]) was 1 to 10 µM each time. In series [3], this molecule had a GI50 at 72 h of 1 to 10 µM.

Take `Cc1cc(-c2nn3c(=O)cc(N4CCN(C)CC4)nc3s2)cc2cn(C)nc12` [Compound 210, 2-(2,7-dimethyl-2H-indazol-5-yl)-7-(4-methylpiperazin-1-yl)-5H-[1,3,4]thiadiazolo[3,2-a]pyrimidin-5-one]: the IC50 (in the series on MYB CJ mRNA; in series [1]; in series [2]) was 1 to 10 µM throughout. The same molecule registered a GI50 at 72 h in series [3] of 1 to 10 µM.

On to `Cc1cn2nc(-c3cc(=O)n4cc(N5CCNC6(CC6)C5)sc4n3)cc(C)c2n1` [Compound 211, 7-(2,8-dimethylimidazo[1,2-b]pyridazin-6-yl)-2-(4,7-diazaspiro[2.5]octan-7-yl)-5H-thiazolo[3,2-a]pyrimidin-5-one], for which the IC50 (with MYB CJ mRNA; in series [1]; in series [2]) was 1 to 10 µM throughout. Further, the GI50 at 72 h in series [3] was 1 to 10 µM.

For the molecule `Cc1cn2nc(-c3cn4c(=O)cc(N5CCNC6(CC6)C5)nc4s3)cc(C)c2n1` [Compound 212, 2-(2,8-dimethylimidazo[1,2-b]pyridazin-6-yl)-7-(4,7-diazaspiro[2.5]octan-7-yl)-5H-thiazolo[3,2-a]pyrimidin-5-one], the IC50 (in the series with MYB CJ mRNA; in series [1]; in series [2]) was 1 to 10 µM throughout. This molecule also showed a GI50 at 72 h in series [3] of 1 to 10 µM.

Regarding `Cc1cn2cc(-c3cn4c(=O)cc(N5CCNCC5)nc4s3)cc(F)c2n1` [Compound 213, 2-(8-fluoro-2-methylimidazo[1,2-a]pyridin-6-yl)-7-(piperazin-1-yl)-5H-thiazolo[3,2-a]pyrimidin-5-one], the IC50 (in the series with MYB CJ mRNA; in series [1]; in series [2]) was > 10 µM each time. Further, the GI50 at 72 h in series [3] was > 10 µM.

Consider `Cc1cn2cc(-c3nn4c(=O)cc(N5CCNCC5)nc4s3)cc(F)c2n1` [Compound 214, 2-(8-fluoro-2-methylimidazo[1,2-a]pyridin-6-yl)-7-(piperazin-1-yl)-5H-[1,3,4]thiadiazolo[3,2-a]pyrimidin-5-one], for which the half-maximal inhibitory concentration (IC50) is 1 to 10 µM with MYB CJ mRNA, > 10 µM in series [1] and > 10 µM in series [2]. In series [3], this molecule yielded a GI50 at 72 h of 1 to 10 µM.

As to `Cc1cn2cc(-c3nn4c(=O)cc(N5CCNC6(CC6)C5)nc4s3)cc(F)c2n1` [Compound 216, 2-(8-fluoro-2-methylimidazo[1,2-a]pyridin-6-yl)-7-(4,7-diazaspiro[2.5]octan-7-yl)-5H-[1,3,4]thiadiazolo[3,2-a]pyrimidin-5-one], the IC50 (in the series on MYB CJ mRNA; in series [1]; in series [2]) was 1 to 10 µM in each case. Moreover, the GI50 at 72 h in series [3] is 1 to 10 µM.

For the molecule `Cc1cn2cc(-c3nn4c(=O)cc(N5CCN(C)CC5)nc4s3)cc(F)c2n1` [Compound 217, 2-(8-fluoro-2-methylimidazo[1,2-a]pyridin-6-yl)-7-(4-methylpiperazin-1-yl)-5H-[1,3,4]thiadiazolo[3,2-a]pyrimidin-5-one], the IC50 (with MYB CJ mRNA; in series [1]; in series [2]) was 1 to 10 µM in each case. For the same molecule, in series [3], the GI50 at 72 h was in the range of 1 to 10 µM.

With `Cc1cn2cc(-c3nn4c(=O)cc(N5CCN(C)C6(CC6)C5)nc4s3)cc(F)c2n1` [Compound 218, 2-(8-fluoro-2-methylimidazo[1,2-a]pyridin-6-yl)-7-(4-methyl-4,7-diazaspiro[2.5]octan-7-yl)-5H-[1,3,4]thiadiazolo[3,2-a]pyrimidin-5-one], the concentration for half-maximal inhibition (IC50) (in the series on MYB CJ mRNA; in series [1]; in series [2]) was 1 to 10 µM each time. Further, the GI50 at 72 h in series [3] fell in the range of 1 to 10 µM.
